Test results taken from PubChem BioAssay (NCI).
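Interpolation was linear, between the two tested concentrations surrounding the appropriate level; five concentrations were tested over 48 hours in 96-well plates. Here, GI50 denotes the concentration required for 50% inhibition of growth. TGI: concentration producing complete growth inhibition.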

How the values were obtained:
Experiment in all cases: inhibition of tumour cell growth, NCI panel, 48 h
SN12C renal = tested on: SN12C renal
HCT-15 colon = tested on: HCT-15 colon
SK-MEL-2 melanoma = tested on: SK-MEL-2 melanoma
COLO 205 colon = tested on: COLO 205 colon
NCI-H23 lung = tested on: NCI-H23 lung
OVCAR-8 ovarian = tested on: OVCAR-8 ovarian
MDA-MB-231 breast = tested on: MDA-MB-231 breast
NCI-H226 lung = tested on: NCI-H226 lung
EKVX NSCLC = tested on: EKVX NSCLC
BT-549 breast = tested on: BT-549 breast
ACHN renal = tested on: ACHN renal
NCI-H460 lung = tested on: NCI-H460 lung
SNB-75 CNS = tested on: SNB-75 CNS
T-47D breast = tested on: T-47D breast
HT29 colon = tested on: HT29 colon
SK-OV-3 ovarian = tested on: SK-OV-3 ovarian
U251 CNS = tested on: U251 CNS
HOP-92 NSCLC = tested on: HOP-92 NSCLC
DU-145 prostate = tested on: DU-145 prostate
UO-31 renal = tested on: UO-31 renal
HL-60(TB) leukemia = tested on: HL-60(TB) leukemia
UACC-62 melanoma = tested on: UACC-62 melanoma
SR leukemia = tested on: SR leukemia
HCT-116 colon = tested on: HCT-116 colon
MOLT-4 leukemia = tested on: MOLT-4 leukemia
NCI-H522 lung = tested on: NCI-H522 lung
SF-268 CNS = tested on: SF-268 CNS
HCC-2998 colon = tested on: HCC-2998 colon
HOP-62 NSCLC = tested on: HOP-62 NSCLC

## O=C(Nc1nc2ccc(F)cc2s1)c1cccnc1Nc1ccc(Cl)cc1Cl
SN12C renal
  GI50: 2.65 µM
  TGI: 13.7 µM
HCT-15 colon
  GI50: 3.35 µM
  TGI: 20.3 µM
SK-MEL-2 melanoma
  GI50: 3.3 µM
  TGI: > 26.2 µM
COLO 205 colon
  GI50: 1.72 µM
  TGI: 3.81 µM
NCI-H23 lung
  GI50: 2.28 µM
  TGI: 9.56 µM
OVCAR-8 ovarian
  GI50: 3.43 µM
  TGI: 22.8 µM
MDA-MB-231 breast
  GI50: 3.11 µM
  TGI: 14.4 µM
NCI-H226 lung
  GI50: 2.72 µM
  TGI: 19.3 µM
EKVX NSCLC
  GI50: 2.02 µM
  TGI: 16 µM
BT-549 breast
  GI50: 2.97 µM
  TGI: 17.5 µM
ACHN renal
  GI50: 3.35 µM
  TGI: 13.7 µM
NCI-H460 lung
  GI50: 2.67 µM
  TGI: 12.4 µM
SNB-75 CNS
  GI50: 1.96 µM
  TGI: 9.14 µM
T-47D breast
  GI50: 1.61 µM
  TGI: 8.01 µM
HT29 colon
  GI50: 2.05 µM
  TGI: 9.75 µM
SK-OV-3 ovarian
  GI50: 2.26 µM
  TGI: 7.38 µM
U251 CNS
  GI50: 2.92 µM
  TGI: 12 µM
HOP-92 NSCLC
  GI50: 1.4 µM
  TGI: 5.15 µM
DU-145 prostate
  GI50: 3.22 µM
  TGI: 13.4 µM
UO-31 renal
  GI50: 2.21 µM
  TGI: > 24.4 µM
HL-60(TB) leukemia
  GI50: 2 µM
  TGI: 5.7 µM
UACC-62 melanoma
  GI50: 2.57 µM
  TGI: 17.2 µM
SR leukemia
  GI50: 2.22 µM
  TGI: 8.23 µM
HCT-116 colon
  GI50: 2.07 µM
  TGI: 8.01 µM
MOLT-4 leukemia
  GI50: 2.35 µM
  TGI: 17.3 µM
NCI-H522 lung
  GI50: 2.53 µM
  TGI: > 25.6 µM
SF-268 CNS
  GI50: 3.34 µM
  TGI: 16.3 µM
HCC-2998 colon
  GI50: 4.09 µM
  TGI: 18.3 µM
HOP-62 NSCLC
  GI50: 3.05 µM
  TGI: 12.8 µM
